As a reminder, the Ki is the equilibrium dissociation constant of an inhibitor or competing ligand from its target. High values mean weaker binding, low ones tighter binding.

This assay deals with T1, Aminopeptidase N (Escherichia coli K-12, UniProt P04825).
T1 sequence (P04825 whole entry): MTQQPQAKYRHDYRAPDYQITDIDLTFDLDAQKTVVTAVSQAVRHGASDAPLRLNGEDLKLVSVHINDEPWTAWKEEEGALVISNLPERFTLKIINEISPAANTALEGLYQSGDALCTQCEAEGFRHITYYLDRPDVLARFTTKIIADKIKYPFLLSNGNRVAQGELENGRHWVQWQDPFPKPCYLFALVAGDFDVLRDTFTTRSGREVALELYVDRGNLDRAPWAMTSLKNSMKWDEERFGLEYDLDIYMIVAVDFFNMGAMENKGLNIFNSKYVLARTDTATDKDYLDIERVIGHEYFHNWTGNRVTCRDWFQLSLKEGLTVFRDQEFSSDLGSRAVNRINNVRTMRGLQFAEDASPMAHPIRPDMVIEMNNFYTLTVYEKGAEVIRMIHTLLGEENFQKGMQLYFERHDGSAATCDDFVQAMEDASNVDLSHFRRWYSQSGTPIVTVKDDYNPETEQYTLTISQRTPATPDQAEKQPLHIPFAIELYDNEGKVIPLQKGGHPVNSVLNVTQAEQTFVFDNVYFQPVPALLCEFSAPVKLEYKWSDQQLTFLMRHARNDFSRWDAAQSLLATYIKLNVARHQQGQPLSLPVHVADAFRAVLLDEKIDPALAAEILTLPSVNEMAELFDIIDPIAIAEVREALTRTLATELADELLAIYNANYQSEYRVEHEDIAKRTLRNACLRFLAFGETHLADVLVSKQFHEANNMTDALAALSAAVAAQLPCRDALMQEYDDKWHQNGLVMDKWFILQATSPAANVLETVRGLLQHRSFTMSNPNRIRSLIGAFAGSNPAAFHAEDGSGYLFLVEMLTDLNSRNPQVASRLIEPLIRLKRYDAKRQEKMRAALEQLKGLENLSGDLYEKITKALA
Kind of assay: Inhibitory activity against aminopeptidase N (PepN) from Escherichia coli.

Some results are limits rather than exact numbers.

Take `CC(NS(=O)(=O)C(C)N)C(=O)O` (stereo not given): the inhibition constant (Ki) was above 300 µM.

In turn, `CCCCCCCCC(CP(=O)(O)C(C)N)C(=O)O` (stereo not given) came in with a Ki of 1.1 µM. To `CC(OS(=O)(=O)C(C)N)C(=O)O` (stereo not given) belongs above 300 µM; to `C/C(=C\P(=O)(O)C(C)N)C(=O)O` (stereo not given), 1 µM; to `CC(CP(=O)(O)C(C)N)C(=O)O` (stereo not given), 10 µM.
